Results from ChEMBL document CHEMBL5113548, “Novel Lactams as Cbl-b Inhibitors for Treating Cancer” (ACS Med Chem Lett, 2022).

target: E3 ubiquitin-protein ligase CBL-B (Homo sapiens, UniProt Q13191); assay: Inhibition of Cbl-b (unknown origin) assessed as reduction in LCK ubiquitination preincubated for 60 mins followed by kinase mix addition measured after 90 mins by TR-FRET assay
Sequence (Q13191 whole entry): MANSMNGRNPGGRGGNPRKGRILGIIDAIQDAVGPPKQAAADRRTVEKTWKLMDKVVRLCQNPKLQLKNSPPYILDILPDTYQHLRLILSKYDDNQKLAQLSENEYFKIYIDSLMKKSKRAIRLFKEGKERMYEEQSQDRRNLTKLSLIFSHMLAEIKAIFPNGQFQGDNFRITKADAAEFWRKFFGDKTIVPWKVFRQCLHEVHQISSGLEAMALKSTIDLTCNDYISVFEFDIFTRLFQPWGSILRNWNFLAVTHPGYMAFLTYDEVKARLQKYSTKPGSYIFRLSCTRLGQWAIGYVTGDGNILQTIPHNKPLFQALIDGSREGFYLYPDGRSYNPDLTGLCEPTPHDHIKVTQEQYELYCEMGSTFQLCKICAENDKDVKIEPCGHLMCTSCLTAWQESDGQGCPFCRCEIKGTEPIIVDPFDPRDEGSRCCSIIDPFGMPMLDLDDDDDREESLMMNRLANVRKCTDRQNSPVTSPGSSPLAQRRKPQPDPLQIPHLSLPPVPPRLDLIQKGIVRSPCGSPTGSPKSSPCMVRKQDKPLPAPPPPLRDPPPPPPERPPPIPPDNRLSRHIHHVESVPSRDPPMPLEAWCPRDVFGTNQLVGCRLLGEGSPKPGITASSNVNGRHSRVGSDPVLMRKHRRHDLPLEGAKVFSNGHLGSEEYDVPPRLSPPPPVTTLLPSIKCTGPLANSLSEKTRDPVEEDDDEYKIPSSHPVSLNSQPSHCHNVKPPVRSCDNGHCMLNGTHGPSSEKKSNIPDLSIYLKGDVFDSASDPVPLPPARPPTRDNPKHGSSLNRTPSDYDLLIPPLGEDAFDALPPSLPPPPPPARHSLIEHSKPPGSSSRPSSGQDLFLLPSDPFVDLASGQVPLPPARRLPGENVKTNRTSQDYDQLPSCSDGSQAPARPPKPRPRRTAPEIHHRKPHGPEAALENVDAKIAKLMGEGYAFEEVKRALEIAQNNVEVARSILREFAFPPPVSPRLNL

IC50 [nM] | SMILES
5.8 | C[C@@H](NC1(C)CCC1)c1cc2c(c(C(F)(F)F)c1)CN(c1cccc(C3(Cc4nncn4C)CC(F)(F)C3)c1)C2=O
6.7 | C[C@@H](NC1(C)CCC1)c1cc2c(c(C(F)(F)F)c1)CN(c1cccc(C3([C@@H](F)c4nncn4C)COC3)c1)C2=O
5.5 | CC(C)[C@@H]1CN(C)CCN1Cc1cc2c(c(C(F)(F)F)c1)CN(c1cc(C3(Cc4nncn4C)COC3)cc(OC3CCCC3)n1)C2=O
